Assay results from patent US20200001120A1, “APPARATUS, METHOD, AND USE FOR ULTRASOUND MEDIATED MICROBUBBLE DELIVERY OF PHARMACEUTICAL COMPOSITIONS” (priority 2017, published 2020).

Test system: E. coli
Assay: E. coli pneumonia in mice: gentamicin with or without USMB, cfu in lung homogenates
Assay type: in vivo, C57BL/6 mice
Procedure: To establish whether USMB enhances antibiotic delivery to the injured lung, gentamicin (1.5 mg/kg) was administered to mice by intraperitoneal injection 6 hours after infection with E. coli to determine whether USMB conferred any additional benefit to treatment with antibiotics or microbubbles alone. This relatively low dose of gentamicin was chosen as it is relatively slow and achieves incomplete clearance of lung pathogens and thus allows any benefit of USMB to become apparent. In humans, high doses of gentamicin are known to cause nephro- and ototoxicity, making it contraindicated for human use at high doses.
C57BL/6 mice were infected intratracheally with 1×10^7 colony forming units (cfu) of E. coli and received 1.5 mg/kg of gentamicin by intraperitoneal injection 6 hours later. Thirty minutes later, the mice were then injected intravenously with 1×10^9 microbubbles (Definity™) by tail vein. (Definity™ is an approved microbubble preparation that is used for diagnostic imaging in intensive care unit patients.) This was followed by thoracic ultrasound administration for five minutes. The ultrasound treatment conditions were the same as those used in Example 1. Eighteen hours later, mice were euthanized by cervical dislocation and lungs were homogenized for cfu. Lung homogenates were plated on agar to measure bacterial growth. Each experiment was repeated twice with 3 mice per group. Control mice received microbubbles and antibiotic without ultrasound (MB+ antibiotics) or antibiotics alone (PBS and antibiotics). Other control mice received no antibiotics. […] Data are mean plus SEM (SD if <3 mice) with each dot representing a separate animal. Note the >1 log-fold reduction in cfu in the mice receiving USMB with antibiotics (left-most group) compared to microbubbles/antibiotics alone. An ELISA performed on lung homogenates and plasma measures gentamicin levels.

## gentamicin
Gentamicin 1.5 mg/kg i.p. plus USMB vs microbubbles/antibiotics alone, 18 hours later
  reduction in cfu in lung homogenates: > 1 log-fold
Gentamicin 1.5 mg/kg i.p. plus USMB, both replicates
  reduction in bacterial growth caused by USMB: 10 fold
Gentamicin alone, 1.5 mg/kg i.p.
  bacterial colony forming units (cfu): reduction
Microbubbles and antibiotics without ultrasound
  benefit over antibiotics alone: no benefit
